# Reference: patent US7432260B2, “Pyrimidine compounds” (Cyclacel Limted, priority 2002, dated 2008)
# Read-outs that look alike come from different tables or passages of the source.
# Columns and labels:
# [1] = biological target: SAPK2a (stress-activated protein kinase 2a) (Homo sapiens, UniProt Q16539); assay: Kinase assay SAPK2a; assay type: biochemical; conditions: Table 3 selectivity panel; read-out: Kinase specificity IC50 SAPK2a
# Experimental: (§1) Kinase assays. […] This was achieved by measurement of incorporation of radioactive phosphate from ATP into appropriate polypeptide substrates. Recombinant protein kinases and kinase complexes were produced or obtained commercially. Assays were performed using 96-well plates and appropriate assay buffers (typically 25 mM β-glycerophosphate, 20 mM MOPS, 5 mM EGTA, 1 mM DTT, 1 mM […], pH 7.4), into which were added 2-4 μg of active enzyme with appropriate substrates. The reactions were initiated by addition of Mg/ATP mix (15 mM MgCl2+100 μM ATP with 30-50 kBq per well of [γ-^32P]-ATP) and mixtures incubated as required at 30° C. Reactions were stopped on ice, followed by filtration through p81 filterplates or GF/C filterplates (Whatman Polyfiltronics, Kent, UK). After washing 3 times with 75 mM aq orthophosphoric acid, plates were dried, scintillant added and incorporated radioactivity measured in a scintillation counter (TopCount, Packard Instruments, Pangbourne, Berks, UK). Compounds for kinase assay were made-up as 10 mM stocks in DMSO and diluted into 10% DMSO inrassay buffer.
# HCT-116 = assay: 72-h MTT cytotoxicity assay HCT-116; assay type: cell-based; conditions: Homo sapiens, HCT-116, 72 h; Table 5; Colon
# Experimental: (§2) MTT cytotoxicity assay. […] Standard 72-h MTT (thiazolyl blue; 3-[4,5-dimethylthiazol-2-yl]-2,5-diphenyltetrazolium bromide) assays were performed (Haselsberger, K.; Peterson, D. C.; Thomas, D. G.; Darling, J. L. Anti Cancer Drugs 1996, 7, 331-8; Loveland, B. E.; Johns, T. G.; Mackay, I. R.; Vaillant, F.; Wang, Z. X.; Hertzog, P. J. Biochemistry International 1992, 27, 501-10). In short: cells were seeded into 96-well plates according to doubling time and incubated overnight at 37° C. Test compounds were made up in DMSO and a 1/3 dilution series prepared in 100 μL cell media, added to cells (in triplicates) and incubated for 72 ho at 37° C. MTT was made up as a stock of 5 mg/mL in cell media and filter-sterilised. Media was removed from cells followed by a wash with 200 μL PBS.
# (§3) MTT solution was then added at 20 μL per well and incubated in the dark at 37° C. for 4 h. MTT solution was removed and cells again washed with 200 μL PBS. MTT dye was solubilised with 200 μL per well of DMSO with agitation.
# K562 = assay: 72-h MTT cytotoxicity assay K562; assay type: cell-based; conditions: Homo sapiens, K562, 72 h; Table 5; Chronic myelogenous leukaemia
# Experimental: as §2, §3
# PLK-1 = PLK-1 (Homo sapiens, UniProt P53350); assay: Kinase assay PLK-1; assay type: biochemical
# Sequence of PLK-1 (P53350 whole entry): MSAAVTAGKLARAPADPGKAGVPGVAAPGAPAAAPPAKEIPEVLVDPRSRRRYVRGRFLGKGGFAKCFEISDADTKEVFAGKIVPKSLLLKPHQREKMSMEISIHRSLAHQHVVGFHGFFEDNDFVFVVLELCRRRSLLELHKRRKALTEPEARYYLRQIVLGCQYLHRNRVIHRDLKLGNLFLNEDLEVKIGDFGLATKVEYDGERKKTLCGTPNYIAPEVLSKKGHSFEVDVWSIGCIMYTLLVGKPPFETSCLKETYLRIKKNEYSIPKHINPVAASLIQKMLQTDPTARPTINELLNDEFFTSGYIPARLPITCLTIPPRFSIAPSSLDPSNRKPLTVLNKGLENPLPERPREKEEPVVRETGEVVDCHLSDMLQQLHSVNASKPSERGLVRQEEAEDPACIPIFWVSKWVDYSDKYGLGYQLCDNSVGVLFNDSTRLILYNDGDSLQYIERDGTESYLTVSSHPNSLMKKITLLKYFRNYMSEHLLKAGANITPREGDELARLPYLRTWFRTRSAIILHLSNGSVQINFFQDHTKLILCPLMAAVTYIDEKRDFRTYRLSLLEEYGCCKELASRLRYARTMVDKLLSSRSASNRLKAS
# Outline: (§4)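 Enzyme + substrate in β-glycerophosphate/MOPS/EGTA/DTT buffer, pH 7.4 → Mg/ATP (100 μM ATP, γ-32P) start → 30° C incubation → ice stop → P81 or GF/C filtration, H3PO4 wash → scintillation count.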
# HL60 = assay: 72-h MTT cytotoxicity assay HL60; assay type: cell-based; conditions: Homo sapiens, HL-60, 72 h; Table 5; Promyelocytic leukaemia
# Experimental: as §2, §3
# [2] = biological target: Abl (Ableson tyrosine kinase) (Homo sapiens, UniProt P00519); assay: Kinase assay Abl; assay type: biochemical; conditions: Table 3 selectivity panel; read-out: Kinase specificity IC50 Abl
# Sequence of Abl (Ableson tyrosine kinase) (P00519 whole entry, species assumed): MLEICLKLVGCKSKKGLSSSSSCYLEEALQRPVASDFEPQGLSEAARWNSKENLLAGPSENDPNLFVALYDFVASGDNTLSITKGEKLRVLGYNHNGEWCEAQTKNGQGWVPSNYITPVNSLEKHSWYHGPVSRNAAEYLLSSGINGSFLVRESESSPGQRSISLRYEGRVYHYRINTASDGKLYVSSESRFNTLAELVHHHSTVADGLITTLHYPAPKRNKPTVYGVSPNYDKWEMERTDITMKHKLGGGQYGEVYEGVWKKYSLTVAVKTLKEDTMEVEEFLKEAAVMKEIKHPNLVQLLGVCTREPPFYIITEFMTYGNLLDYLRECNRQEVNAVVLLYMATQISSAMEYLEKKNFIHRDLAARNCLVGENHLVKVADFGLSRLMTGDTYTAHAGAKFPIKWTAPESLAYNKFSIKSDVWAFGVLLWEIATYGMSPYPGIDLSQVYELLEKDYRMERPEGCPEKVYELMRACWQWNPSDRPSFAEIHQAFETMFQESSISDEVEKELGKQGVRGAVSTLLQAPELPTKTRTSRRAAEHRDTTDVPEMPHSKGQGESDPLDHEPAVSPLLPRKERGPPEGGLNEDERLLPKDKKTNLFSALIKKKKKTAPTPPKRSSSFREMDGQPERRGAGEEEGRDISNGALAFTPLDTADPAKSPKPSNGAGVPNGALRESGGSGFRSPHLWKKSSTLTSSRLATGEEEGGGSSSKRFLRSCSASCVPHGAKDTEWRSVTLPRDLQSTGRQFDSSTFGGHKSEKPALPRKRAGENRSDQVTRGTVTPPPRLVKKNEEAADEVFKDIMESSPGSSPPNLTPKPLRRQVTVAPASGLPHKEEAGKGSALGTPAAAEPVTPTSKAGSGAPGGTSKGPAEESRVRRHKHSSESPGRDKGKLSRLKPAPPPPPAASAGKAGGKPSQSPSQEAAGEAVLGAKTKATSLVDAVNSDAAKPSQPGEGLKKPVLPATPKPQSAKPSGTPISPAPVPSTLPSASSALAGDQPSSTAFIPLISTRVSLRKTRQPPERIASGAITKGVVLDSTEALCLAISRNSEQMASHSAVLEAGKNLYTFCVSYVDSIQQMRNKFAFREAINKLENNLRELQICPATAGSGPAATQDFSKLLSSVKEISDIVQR
# Experimental: as §1
# Hacat = assay: 72-h MTT cytotoxicity assay Hacat; assay type: cell-based; conditions: Homo sapiens, Table 5, Skin keratinocytes
# Experimental: as §2, §3
# [3] = biological target: Akt/PKB (protein kinase B) (Homo sapiens, UniProt P31749); assay: Kinase assay Akt/PKB; assay type: biochemical; conditions: Table 3 selectivity panel; read-out: Kinase specificity IC50 Akt/PKB
# Sequence of Akt/PKB (protein kinase B) (P31749 whole entry): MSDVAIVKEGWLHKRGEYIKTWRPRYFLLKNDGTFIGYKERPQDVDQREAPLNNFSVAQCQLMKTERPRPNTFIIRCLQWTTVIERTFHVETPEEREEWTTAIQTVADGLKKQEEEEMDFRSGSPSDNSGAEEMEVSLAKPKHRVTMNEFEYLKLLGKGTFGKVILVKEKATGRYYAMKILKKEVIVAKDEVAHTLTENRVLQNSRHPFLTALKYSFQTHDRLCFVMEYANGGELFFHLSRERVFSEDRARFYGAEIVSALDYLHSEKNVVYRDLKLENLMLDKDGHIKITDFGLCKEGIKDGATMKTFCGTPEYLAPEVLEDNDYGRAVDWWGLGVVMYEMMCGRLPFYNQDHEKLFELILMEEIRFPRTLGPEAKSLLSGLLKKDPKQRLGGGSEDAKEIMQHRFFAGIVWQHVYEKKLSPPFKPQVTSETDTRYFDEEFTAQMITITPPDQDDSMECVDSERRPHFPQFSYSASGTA
# Experimental: as §1
# DU-145 = assay: 72-h MTT cytotoxicity assay DU-145; assay type: cell-based; conditions: Homo sapiens, DU-145, 72 h; Table 5; Prostate
# Experimental: as §2, §3
# Hela = assay: 72-h MTT cytotoxicity assay Hela; assay type: cell-based; conditions: Homo sapiens, Table 5, Cervix
# Experimental: as §2, §3
# all transformed cells = assay: 72-h MTT cytotoxicity assay, summary over all transformed cells; assay type: cell-based; conditions: Homo sapiens
# Experimental: as §2, §3
# AGS = assay: 72-h MTT cytotoxicity assay AGS; assay type: cell-based; conditions: Homo sapiens, Table 5, Gastric adenocarcinoma
# Experimental: as §2, §3
# CDK2/cyclin E = CDK2/cyclin E (Homo sapiens, UniProt P24941); assay: Kinase assay CDK2/cyclin E; assay type: biochemical
# Outline: as §4
# SKUT-1B = assay: 72-h MTT cytotoxicity assay SKUT-1B; assay type: cell-based; conditions: Homo sapiens, Skut1B, Table 5, Leiomyosarcoma
# Experimental: as §2, §3
# SKUT-1 = assay: 72-h MTT cytotoxicity assay SKUT-1; assay type: cell-based; conditions: Homo sapiens, SK-UT-1, 72 h; Table 5; Leiomyosarcoma
# Experimental: as §2, §3
# Lovo = assay: 72-h MTT cytotoxicity assay Lovo; assay type: cell-based; conditions: Homo sapiens, Table 5, Colon
# Experimental: as §2, §3
# [4] = biological target: p70 ribosomal protein S6 kinase (Homo sapiens, UniProt P23443); assay: Kinase assay p70/S6; assay type: biochemical; conditions: Table 3 selectivity panel; read-out: Kinase specificity IC50 p70/S6
# Sequence of p70 ribosomal protein S6 kinase (P23443 91-352 limits assumed): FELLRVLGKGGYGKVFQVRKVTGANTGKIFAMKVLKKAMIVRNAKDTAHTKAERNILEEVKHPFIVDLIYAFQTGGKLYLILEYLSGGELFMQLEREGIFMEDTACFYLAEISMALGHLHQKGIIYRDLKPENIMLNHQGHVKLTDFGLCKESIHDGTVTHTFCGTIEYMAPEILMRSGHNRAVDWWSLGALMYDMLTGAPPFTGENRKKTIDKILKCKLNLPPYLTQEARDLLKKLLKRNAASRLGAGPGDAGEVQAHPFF
# Experimental: as §1
# [5] = biological target: CaMKII (calmodulin-depependent kinase II); assay: Kinase assay CaMKII; assay type: biochemical; conditions: Table 3 selectivity panel; read-out: Kinase specificity IC50 CaMKII
# Experimental: as §1
# nci-H460 = assay: 72-h MTT cytotoxicity assay nci-H460; assay type: cell-based; conditions: Homo sapiens, NCI-H460, 72 h; Table 5; Lung
# Experimental: as §2, §3
# IMR-90 = assay: 72-h MTT cytotoxicity assay IMR-90; assay type: cell-based; conditions: Homo sapiens, IMR-90, 72 h; Table 5; Foetal lung fibroblast (non-transformed)
# Experimental: as §2, §3
# Messa = assay: 72-h MTT cytotoxicity assay Messa; assay type: cell-based; conditions: Homo sapiens, MES-SA, Table 5, Uterine
# Experimental: as §2, §3
# CCRF-CEM = assay: 72-h MTT cytotoxicity assay CCRF-CEM; assay type: cell-based; conditions: Homo sapiens, Table 5, Leukemia
# Experimental: as §2, §3
# Hs27 = assay: 72-h MTT cytotoxicity assay Hs27; assay type: cell-based; conditions: Homo sapiens, HS27, 72 h; Table 5; Foreskin fibroblast (non-transformed)
# Experimental: as §2, §3
# WI38 = assay: 72-h MTT cytotoxicity assay WI38; assay type: cell-based; conditions: Homo sapiens, WI-38, 72 h; Table 5; Foetal lung fibroblast (non-transformed)
# Experimental: as §2, §3
# U2OS = assay: 72-h MTT cytotoxicity assay U2OS; assay type: cell-based; conditions: Homo sapiens, Table 5, Bone osteosarcoma
# Experimental: as §2, §3
# Sequence of SAPK2a (stress-activated protein kinase 2a) (Q16539 whole entry, species assumed): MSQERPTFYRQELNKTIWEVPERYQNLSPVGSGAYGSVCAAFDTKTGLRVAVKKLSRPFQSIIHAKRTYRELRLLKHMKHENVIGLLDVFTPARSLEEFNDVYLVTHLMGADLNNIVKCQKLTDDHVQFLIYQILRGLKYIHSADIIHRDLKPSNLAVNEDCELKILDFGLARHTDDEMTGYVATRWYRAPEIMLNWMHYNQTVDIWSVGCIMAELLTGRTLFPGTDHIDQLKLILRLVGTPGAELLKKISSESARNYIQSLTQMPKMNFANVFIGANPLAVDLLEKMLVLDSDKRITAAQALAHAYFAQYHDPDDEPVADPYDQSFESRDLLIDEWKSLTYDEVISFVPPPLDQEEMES
compound,measurement,setting,value
"CC[C@@H](N)C(=O)Nc1nc(C)c(-c2ccnc(Nc3cccc([N+](=O)[O-])c3)n2)s1 [Compound 16, (2R)-2-Amino-N-{4-methyl-5-[2-(3-nitro-phenylamino)-pyrimidin-4-yl]-thiazol-2-yl}-butyramide]",IC50,[1],> 100000 nM
same,IC50,HCT-116,300 nM
same,IC50,K562,2500 nM
same,IC50,"PLK-1; Table 2, read-out: Kinase Inhibition IC50 PLK-1",> 150000 nM
same,IC50,"PLK-1; Table 3 selectivity panel, read-out: Kinase specificity IC50 PLK1",> 100000 nM
same,IC50,HL60,600 nM
same,IC50,[2],1500 nM
same,IC50,Hacat,1100 nM
same,IC50,[3],> 100000 nM
same,IC50,DU-145,600 nM
same,IC50,Hela,400 nM
same,IC50,"all transformed cells; Table 5, average over transformed cell lines, read-out: 72-h MTT IC50 Average (all transformed cells)",600 nM
same,IC50,"all transformed cells; Table 5, median over transformed cell lines, read-out: 72-h MTT IC50 Median (all transformed cells)",400 nM
same,IC50,AGS,300 nM
same,IC50,"CDK2/cyclin E; Table 2, read-out: Kinase Inhibition IC50 CDK2 cyclin E",320 nM
same,IC50,"CDK2/cyclin E; Table 3 selectivity panel, read-out: Kinase specificity IC50 CDK2/E",350 nM
same,IC50,SKUT-1B,100 nM
same,IC50,SKUT-1,200 nM
same,IC50,Lovo,300 nM
same,IC50,[4],8000 nM
same,IC50,[5],11000 nM
same,IC50,nci-H460,300 nM
same,IC50,IMR-90,1700 nM
same,IC50,Messa,400 nM
same,IC50,CCRF-CEM,1100 nM
same,IC50,Hs27,> 5000 nM
same,IC50,WI38,1400 nM
same,IC50,U2OS,480 nM
